{"source": "ChEMBL document CHEMBL4038282", "about": "(Eur J Med Chem, 2017)", "key": {"MDA-MB-231 [1]": {"system": "MDA-MB-231", "test": "Antiproliferative activity against human MDA-MB-231 cells up to 72 hrs by MTT assay", "type": "functional, cell-based", "conditions": "MDA-MB-231, 72 h"}, "HCT-116": {"system": "HCT-116", "test": "Antiproliferative activity against human HCT116 cells up to 72 hrs by MTT assay", "type": "functional, cell-based", "conditions": "HCT-116, 72 h"}, "PC-3": {"system": "PC-3", "test": "Antiproliferative activity against human PC3 cells up to 72 hrs by MTT assay", "type": "functional, cell-based", "conditions": "PC-3, 72 h"}, "T47D": {"system": "T47D", "test": "Antiproliferative activity against ER/PR positive human T47D cells after 24 hrs by MTT assay", "type": "functional, cell-based"}, "MCF7": {"system": "MCF7", "test": "Antiproliferative activity against ER/PR positive human MCF7 cells after 24 hrs by MTT assay", "type": "functional, cell-based", "conditions": "MCF7, 24 h"}, "MDA-MB-453": {"system": "MDA-MB-453", "test": "Antiproliferative activity against HER2 positive human MDA-MB-453 cells after 24 hrs by MTT assay", "type": "functional, cell-based", "conditions": "MDA-MB-453, 24 h"}, "MDA-MB-157": {"system": "MDA-MB-157", "test": "Antiproliferative activity against human MDA-MB-157 cells after 24 hrs by MTT assay", "type": "functional, cell-based", "conditions": "MDA-MB-157, 24 h"}, "BT-474": {"system": "BT-474", "test": "Antiproliferative activity against HER2 positive human BT474 cells after 24 hrs by MTT assay", "type": "functional, cell-based", "conditions": "BT-474, 24 h"}, "SK-BR-3": {"system": "SK-BR-3", "test": "Antiproliferative activity against HER2 positive human SKBR3 cells after 24 hrs by MTT assay", "type": "functional, cell-based", "conditions": "SK-BR-3, 24 h"}, "MDA-MB-468 [2]": {"system": "MDA-MB-468", "test": "Antiproliferative activity against human MDA-MB-468 cells after 24 hrs by MTT assay", "type": "functional, cell-based", "conditions": "MDA-MB-468, 24 h"}, "Hs-578T": {"system": "Hs-578T", "test": "Antiproliferative activity against human Hs578T cells after 24 hrs by MTT assay", "type": "functional, cell-based"}, "MDA-MB-468 [3]": {"system": "MDA-MB-468", "test": "Antiproliferative activity against doxorubicin-resistant human MDA-MB-468 cells after 24 hrs by MTT assay", "type": "functional, cell-based", "conditions": "MDA-MB-468, 24 h"}, "Mus musculus [4]": {"system": "Mus musculus", "test": "Toxicity in nu/nu mouse assessed as changes in body weight at 100 mg/kg, po administered once daily for 32 days measured every 4 days during compound dosing", "type": "organism-based", "conditions": "in vivo"}, "Mus musculus [5]": {"system": "Mus musculus", "test": "Toxicity in nu/nu mouse assessed as effect on food consumption at 100 mg/kg, po administered once daily for 32 days measured during compound dosing", "type": "organism-based", "conditions": "in vivo, 768 h"}, "Mus musculus [6]": {"system": "Mus musculus", "test": "Toxicity in nu/nu mouse assessed as behavioral changes at 100 mg/kg, po administered once daily for 32 days measured during compound dosing", "type": "organism-based", "conditions": "in vivo, 768 h"}, "[7]": {"test": "Solubility of the compound in water after 24 hrs by shake-flask method", "type": "physicochemical"}, "[8]": {"test": "Solubility of the compound in ethanol after 24 hrs by shake-flask method", "type": "physicochemical", "conditions": "24 h"}, "MDA-MB-231 [9]": {"system": "MDA-MB-231", "test": "Anti-tumor activity against human MDA-MB-231 cells xenografted in nu/nu mouse assessed as reduction in tumor weight at 1 mg/kg, ip administered once daily for 32 days", "type": "functional", "design": "scale not given: the % may be the effect or the level left"}, "Mus musculus [10]": {"system": "Mus musculus", "test": "Toxicity in nu/nu mouse assessed as behavioral changes at 1 mg/kg, ip administered once daily for 32 days", "type": "organism-based", "conditions": "in vivo, 768 h"}, "Mus musculus [11]": {"system": "Mus musculus", "test": "Toxicity in nu/nu mouse assessed as change in body weight at 1 mg/kg, ip administered once daily for 32 days", "type": "organism-based", "conditions": "in vivo, 768 h"}, "Mus musculus [12]": {"system": "Mus musculus", "test": "Toxicity in nu/nu mouse assessed as hematological changes at 1 mg/kg, ip administered once daily for 32 days", "type": "organism-based", "conditions": "in vivo, 768 h"}, "MDA-MB-231 [13]": {"system": "MDA-MB-231", "test": "Potency index, ratio of curcumin IC50 to compound IC50 for human MDA-MB-231 cells", "type": "functional"}}, "data": [{"smiles": "COc1cc(/C=C/C(=O)CC(=O)/C=C/c2ccc(O)c(OC)c2)ccc1O", "note": "[CURCUMIN]", "values": [{"measurement": "IC50", "setting": "MDA-MB-231 [1]", "value": 16.2, "unit": "µM"}, {"measurement": "IC50", "setting": "HCT-116", "value": 13.8, "unit": "µM"}, {"measurement": "IC50", "setting": "PC-3", "value": 18.8, "unit": "µM"}, {"measurement": "IC50", "setting": "T47D", "value": 47.9, "unit": "µM"}, {"measurement": "IC50", "setting": "MCF7", "value": 42.9, "unit": "µM"}, {"measurement": "IC50", "setting": "MDA-MB-453", "value": 32.4, "unit": "µM"}, {"measurement": "IC50", "setting": "MDA-MB-157", "value": 40.4, "unit": "µM"}, {"measurement": "IC50", "setting": "BT-474", "value": 30.1, "unit": "µM"}, {"measurement": "IC50", "setting": "SK-BR-3", "value": 42.8, "unit": "µM"}, {"measurement": "IC50", "setting": "MDA-MB-468 [2]", "value": 42.9, "unit": "µM"}, {"measurement": "IC50", "setting": "Hs-578T", "value": 55.5, "unit": "µM"}, {"measurement": "IC50", "setting": "MDA-MB-468 [3]", "value": 58.6, "unit": "µM"}, {"measurement": "Activity", "setting": "Mus musculus [4]", "value": "Non-Toxic"}, {"measurement": "Activity", "setting": "Mus musculus [5]", "value": "Non-Toxic"}, {"measurement": "Activity", "setting": "Mus musculus [6]", "value": "Non-Toxic"}, {"measurement": "solubility thermodynamic at 24 h", "setting": "[7]", "value": 0.6, "unit": "µg/mL"}, {"measurement": "solubility", "setting": "[8]", "value": 1860, "unit": "µg/mL"}]}, {"smiles": "COc1cccc2c1C(=O)c1c(O)c3c(c(O)c1C2=O)C[C@@](O)(C(=O)CO)C[C@@H]3O[C@H]1C[C@H](N)[C@H](O)[C@H](C)O1", "note": "[DOXORUBICIN]", "values": [{"measurement": "Activity", "setting": "MDA-MB-231 [9]", "value": 60, "unit": "%"}, {"measurement": "Activity", "setting": "Mus musculus [10]", "value": "Non-Toxic"}, {"measurement": "Activity", "setting": "Mus musculus [11]", "value": "Non-Toxic"}, {"measurement": "Activity", "setting": "Mus musculus [12]", "value": "Non-Toxic"}]}, {"smiles": "COc1ccc(/C=C/C(O)=C/C(=O)/C=C/c2ccc(OC(=O)C(C)(CO)CO)c(OC)c2)cc1OC", "values": [{"measurement": "IC50", "setting": "MDA-MB-231 [1]", "value": 2.55, "unit": "µM"}, {"measurement": "Ratio IC50", "setting": "MDA-MB-231 [13]", "value": "2.4 - 12.2"}, {"measurement": "IC50", "setting": "HCT-116", "value": 4.77, "unit": "µM"}, {"measurement": "IC50", "setting": "PC-3", "value": 7.64, "unit": "µM"}]}, {"smiles": "CCC(CO)(CO)C(=O)Oc1ccc(/C=C/C(=O)/C=C(O)/C=C/c2ccc(OC(=O)C(CC)(CO)CO)c(OC)c2)cc1OC", "values": [{"measurement": "IC50", "setting": "MDA-MB-231 [1]", "value": 2, "unit": "µM"}, {"measurement": "Ratio IC50", "setting": "MDA-MB-231 [13]", "value": "2.4 - 12.2"}, {"measurement": "IC50", "setting": "HCT-116", "value": 1.34, "unit": "µM"}, {"measurement": "IC50", "setting": "PC-3", "value": 4.21, "unit": "µM"}]}]}
